Laboratory results published in US5872126A, “Methods and compositions for treating preterm labor” (priority 1997, dated 1999).
Where “and” joins values, the source holds several entries; their conditions need not be identical. Identical values can stand only once. Entries after “also recorded” stand apart in the source; their conditions may differ.

Experiments:
Assay type in all cases: in vivo, Sprague-Dawley rat
[1] = test system: parturition in the rat; test: Parturition with test compound and progesterone antagonist RU-486 (Example 3); conditions: test compound 20 mg/kg/day (Group 3)
Description: (§1) In order to determine if the effects in the experiments conducted in Examples 1 and 2 were due to decreased progesterone catabolism associated with inhibition of 5α-reductase by the 5α-reductase type 1 inhibitor 3-oxo-4-aza-4,7β-dimethyl-16β-(4-chlorophenoxy)-5α-androstane ("test compound"), the following study was performed with the 5α-reductase inhibitor 3-oxo-4-aza-4,7β-dimethyl-16β-(4-chlorophenoxy)-5α-androstane and the progesterone antagonist RU-486.
(§2) Fifty-six pregnant female Sprague-Dawley rats (Charles River Laboratories, Raleigh, N.C.), approximately 10.5 weeks old weighing from 212 to 319 grams were employed in the study. They were fed and housed as described in EXAMPLE 1. The females were assigned to the following groups based on a weight independent random allocation scheme:
Control (Control article)
test compound @ 20 mg/kg/day
(§3) A dose of 10 mg/kg off RU-486 was selected based on the studies of Abdellilah et al., Progesterone and Mifepristone modify principally the response of circular myometrium to oxytocin in preparturient rats: comparison with response to acetylcholine and to calcium J. Pharmacol. and Exp. Therp.
(§4) The drugs were administered by oral gavage. The control article and vehicle consisted of 0.5% methylcellulose in deionized water with 0.02% sodium lauryl sulfate (SLS) and were prepared on a weekly basis and refrigerated when not in use. The test compound formulation (4 mg/mL, in vehicle) was prepared on a weekly basis and was refrigerated when not in use. The RU-486 formulation (2 mg base compound/mL, in 0.5% methylcellulose in deionized water) was prepared on a daily basis.

[2] = test system: parturition in the rat; test: Effect of test compound on parturition in the rat, dosed GD 6 through LD 20 (Example 1); conditions: for Mean Length of Gestation ± SD: oral gavage
Description: Effect of the 5α-reductase type 1 inhibitor 3-oxo-4-aza-4,7β-dimethyl-16β-(4-chlorophenoxy)-5α-androstane on parturition in the rat
Fifty female Sprague-Dawley rats (Charles River Laboratories, Raleigh, N.C.) approximately 11 weeks old, weighing from 211 to 297 grams were assigned to the present study. The female rats were housed singly in stainless steel hanging cages prior to and after cohabitation with a male of the same strain. During cohabitation, females were caged with untreated males of the same strain in a ratio of 1 female: 1 male. On Gestational Day (GD) 15 to 17, females were transferred to individual clear polycarbonate boxes containing Beta-Chip bedding in preparation for delivery and in which they remained with their litters throughout the lactation period. Room temperature was maintained between 19.4° and 25.0° C.; room humidity was maintained between 40 and 60% relative humidity, and room lights were set for alternating 12-hour periods of light and dark throughout the study. All rats had free access to PMI Certified Rodent Diet #5002 and tap water throughout the study.
Vehicle consisted of 0.5% methylcellulose in deionized water with […] sodium laurel sulfate (SLS) and was prepared on a weekly basis and refrigerated when not in use.
The high dose formulation of 3-oxo-4-aza-4,7β-dimethyl-16β-(4-chlorophenoxy)-5α-androstane ("test compound") (4 mg/mL, in vehicle) was prepared on a weekly basis and was refrigerated when not in use. All lower does formulations (0.5, 1.0 and 2.0 mg/mL) were prepared on a daily basis by diluting the high dose preparation with the vehicle. Ten females were randomly allocated to each of the following treatment groups: Control, 2.5 mg test compound/kg/day, 5.0 mg test compound/kg/day, 10 mg test compound/kg/day, 20 mg test compound/kg/day. The formulation was administered by oral gavage in a dosage volume of 5 ml/kg based on the most recent body weight. Females were treated once daily with the dose above from GD 6 through LD (lactation day) 20.
Each female was housed with one untreated male of the same strain. […] The day of finding the plugs and/or sperm was considered GD 0.
From GD21 until the completion of delivery (LD 0), each pregnant female was observed on four occasions throughout the day. On GD 24, females were observed twice at 7:30 am and 10:00 am. The onset and completion of delivery and any signs of difficulty in parturition were noted. Those females that had completed delivery at the first observation of the day were assigned a whole day value for the length of gestation (e.g. 21.0 or 22.0 days). Those females that completed delivery during the workday were assigned a half day value (e.g. 21.5 or 22.5 days).

[3] = test system: serum progesterone; test: Serum progesterone in pregnant rats (Example 3); conditions: 20 mg/kg/day
Description: as §1, §2, §3, §4

In the case of C[C@H]1C[C@H]2N(C)C(=O)CC[C@]2(C)[C@H]2CC[C@]3(C)C[C@@H](Oc4ccc(Cl)cc4)C[C@H]3[C@H]12 [test compound, 3-oxo-4-aza-4,7β-dimethyl-16β-(4-chlorophenoxy)-5α-androstane], the “number of females completing parturition” value ([1]; delivery day GD 22.0) is reported as 1, the “number of females completing parturition” value ([1]; delivery day GD 23.0) is reported as 2 and the “number of females completing parturition” value ([1]; delivery day GD 24) is reported as 3. For the same compound, the “Sacrificed Early (on GD 24 due to failure to initiate or complete parturition)” value [1] was 7, the “females that failed to initiate or complete parturition” value [1] was “drug related increase in females that failed to initiate or complete parturition” and the “Mean Length of Gestation ± SD” value ([1]; only females completing delivery, 20 mg/kg/day) was 23.3 days and 23.3 ± 0.8 days. For the same compound, the “number of females completing parturition” value ([2]; 2.5 mg/kg/day, delivery day GD 22.0) was 2, the “number of females completing parturition” value ([2]; 2.5 mg/kg/day, delivery day GD 22.5) was 7 and the “Mean Length of Gestation ± SD” value ([2]; 2.5 mg/kg/day) was 22.8 ± 0.4 days. For the same compound, the “Sacrificed GD 24 due to failure to initiate or complete parturition” value (“Sacrificed GD 24 due to failure” below) ([2]; 5.0 mg/kg/day) was 3, the “number of females completing parturition” value ([2]; 5.0 mg/kg/day, delivery day GD 22.0) was 2 and the “number of females completing parturition” value ([2]; 5.0 mg/kg/day, delivery day GD 22.5) was 2. For the same compound, the “number of females completing parturition” value ([2]; 5.0 mg/kg/day, delivery day GD 23.0) was 2, the “Mean Length of Gestation ± SD” value ([2]; 5.0 mg/kg/day) was 22.7 ± 0.7 days and the “Sacrificed GD 24 due to failure” value ([2]; 10.0 mg/kg/day) was 3. For the same compound, the “number of females completing parturition” value ([2]; 10.0 mg/kg/day, delivery day GD 22.5) was 2, the “number of females completing parturition” value ([2]; 10.0 mg/kg/day, delivery day GD 23.0) was 3 and the “Mean Length of Gestation ± SD” value ([2]; 10.0 mg/kg/day) was 22.8 ± 0.3 days. For the same compound, the “Sacrificed GD 24 due to failure” value ([2]; 20 mg/kg/day) was 6, the “number of females completing parturition” value ([2]; 20 mg/kg/day, delivery day GD 22.5) was 1 and the “number of females completing parturition” value ([2]; 20 mg/kg/day, delivery day GD 23.0) was 3. The “Mean Length of Gestation ± SD” value ([2]; 20 mg/kg/day) was 22.9 ± 0.2 days, the “failure to initiate or complete parturition” value ([2]; 5, 10 and 20 mg/kg/day) was “treatment related increases in the failure to initiate or complete parturition; also recorded: drug-related increases in the incidence of females that failed to initiate or complete parturition” and the “length of gestation” value ([2]; all drug-treated groups, 2.5-20 mg/kg/day) was “treatment-related increases in the length of gestation”. For the same compound, the “mean serum progesterone, times above control group 1” value (shortened to “mean serum progesterone”) ([3]; GD 15) was “approximately 1.6 times”, the “mean serum progesterone” value ([3]; GD 17) was ~1.4 times and the “mean serum progesterone” value ([3]; GD 19) was “approximately 1.6 times”. The “mean serum progesterone” value ([3]; GD 21) was ~3.3 times and the “correlation of individual serum progesterone values on GD 21 and failure to initiate or complete parturition” value ([3]; Group 3) was “positive correlation”.
